# Laboratory results as given in patent US10695333B2 (NOVARTIS AG, priority 2017, dated 2020).
# Several values for one entry are separate records, joined by “and”; a condition that tells them apart may be missing. Identical values can stand only once. Marks after values point to notes of the source that are not given here.
# Assays:
# MCF-7 xenograft [1] = assay: LSZ102 with alpelisib in orthotopic MCF-7 breast cancer model in mice; assay type: in vivo, mouse; conditions: Day 62
# MCF-7 xenograft [2] = assay: Orthotopic MCF-7 xenograft model in NSG mice; assay type: in vivo, mouse; conditions: for Tumor response in words: LSZ102 20 mg/kg QD, tamoxifen 60 mg/kg, fulvestrant 5 mg/mouse
# Procedure: Mice were supplemented with estradiol (0.72 mg estradiol/90-day release pellets) to further support MCF-7 tumor growth several days prior to cell implantation.
# HBRX1298 xenograft = assay: ER+ primary breast cancer model HBRX1298 in NSG mice; assay type: in vivo, mouse; conditions: Day 63
# Procedure: HBRX1298 tumors were established in NSG female mice by injection of a tumor brei into the inguinal mammary fat pad area. Mice were implanted with 0.72 mg estradiol/90-day release pellets several days prior to cell implantation. […] The 80 mg/kg QD dose inhibited tumor volumes close to the extent observed in mice with estradiol pellet removal (% ΔT/ΔC=32% and 21%, respectively; p<0.05).
# MCF-7 xenograft [3] = assay: Dose fractionation study in mice with MCF-7 xenografts; assay type: in vivo, mouse; conditions: for Tumor response ΔT/ΔC / Tumor response Regression: Day 61
# ERα = target: T1, ERα (Homo sapiens, UniProt P03372); conditions: MCF-7 parental cells, 24 hr treatment
# T1 sequence (P03372 1-595): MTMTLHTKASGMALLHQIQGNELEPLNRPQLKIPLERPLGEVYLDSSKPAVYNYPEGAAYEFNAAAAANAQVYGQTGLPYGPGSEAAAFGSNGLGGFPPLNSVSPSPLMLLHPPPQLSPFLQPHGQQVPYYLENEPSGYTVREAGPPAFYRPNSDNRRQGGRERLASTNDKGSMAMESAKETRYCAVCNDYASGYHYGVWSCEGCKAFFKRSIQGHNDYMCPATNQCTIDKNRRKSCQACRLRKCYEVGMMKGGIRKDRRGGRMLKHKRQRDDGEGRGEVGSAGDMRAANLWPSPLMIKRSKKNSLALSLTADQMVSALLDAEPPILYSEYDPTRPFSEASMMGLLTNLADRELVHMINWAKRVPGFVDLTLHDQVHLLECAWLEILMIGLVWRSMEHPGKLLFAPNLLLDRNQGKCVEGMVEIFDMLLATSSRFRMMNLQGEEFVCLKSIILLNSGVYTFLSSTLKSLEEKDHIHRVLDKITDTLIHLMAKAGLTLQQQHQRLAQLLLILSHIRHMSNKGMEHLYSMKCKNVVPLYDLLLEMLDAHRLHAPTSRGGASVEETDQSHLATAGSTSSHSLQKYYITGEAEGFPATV
# [4] = system: MCF-7 parental (ER wildtype) cells; assay: cells; conditions: Homo sapiens, MCF7, 168 h, read-out: MCF-7 proliferation Ave IC50, ESR1 WT
# Procedure: Cell viability was determined by CellTiter-Glo (CTG) assay after 7 days of compound treatment. […] IC50 nM values were calculated using the XLfit software and are defined as the inflection point of the fitted inhibition curves.
# [5] = system: ER regulated transcripts GREB1 and PGR; assay: GREB1 and PGR mRNA in MCF-7 tumors after final dose; assay type: in vivo, mouse; conditions: higher dose levels, tumors collected 24 hours after final treatment on day 61, normalized to B2M
# Excerpt: Data is plotted for individual animals and is normalized to expression of beta-2 microglobulin (B2M).
# [6] = Phase I/Ib study, safety and tolerability; assay type: in vivo, human
# Excerpt: (§1) Eligible patients, ≥18 years old, have histologically confirmed ER+ breast cancer that has progressed after endocrine therapy for metastatic or locally advanced disease or recurrence while on, or within 12 months of the end of adjuvant treatment with an aromatase inhibitor. […] As of Jul. […] As of Jul. 23, 2018, 13 patients continued ongoing treatment and 3 patients discontinued due to progressive disease.
# [7] = system: advanced or metastatic ER+ breast cancer; assay: Phase I/Ib study, anti-tumor activity; assay type: in vivo, human
# Excerpt: as §1
# clinical = conditions: human, in vivo
# Excerpt: Secondary objectives are to evaluate preliminary anti-tumor activity and looking at overall response rate (ORR), duration of response (DOR), progression-free survival (PFS), disease control rate (DCR), pharmacokinetics (PK) and pharmacodynamics (PD).
# [8] = system: ER target genes GREB1 and PGR; assay: qRT-PCR of ER target genes in MCF-7 WT cells
# [9] = All Arm A treatment period patients (N = 73)
# [10] = LSZ102 single agent arm (n = 74)
# [11] = All LSZ102 single agent arm patients, evaluable n = 72
# [12] = 60 mg/kg PO QD x 5 days x QWeek, Day 48
smiles,measurement,setting,value
"Cc1nc(NC(=O)N2CCC[C@H]2C(N)=O)sc1-c1ccnc(C(C)(C)C(F)(F)F)c1 [BYL719, reference compound]",Tumor response ΔT/ΔC,MCF-7 xenograft [1]; BYL719 20 mg/kg QD PO,38%
"C[C@]12CC[C@@H]3c4ccc(O)cc4C[C@@H](CCCCCCCCC[S+]([O-])CCCC(F)(F)C(F)(F)F)[C@H]3[C@@H]1CC[C@@H]2O (some centres unmarked) [Fulvestrant, reference compound]",Tumor response ΔT/ΔC,"MCF-7 xenograft [2]; 5 mg/mouse SC QWeek, Day 48",24* %
same,Tumor response in words,MCF-7 xenograft [2],suppression of growth
same,Tumor response ΔT/ΔC,HBRX1298 xenograft; 5 mg/mouse SC QWeek,48* %
same,Tumor response ΔT/ΔC,MCF-7 xenograft [3]; 5 mg/mouse SC QWeek,18* %
same,ER protein levels (immunoblot),ERα,significantly reduce ER protein levels
same,IC50,[4],2.6 nM
"CC(F)(F)c1cc(F)ccc1-c1sc2cc(O)ccc2c1Oc1ccc(/C=C/C(=O)O)cc1 [LSZ102, (E)-3-(4-((2-(2-(1,1-difluoroethyl)-4-fluorophenyl)-6-hydroxybenzo[b]thiophen-3-yl)oxy)phenyl)acrylic acid]",Tumor response ΔT/ΔC,"MCF-7 xenograft [2]; 1 mg/kg PO QD, Day 48",56%
same,Tumor response ΔT/ΔC,"MCF-7 xenograft [2]; 3 mg/kg PO QD, Day 48",51%
same,Tumor response ΔT/ΔC,"MCF-7 xenograft [2]; 10 mg/kg PO QD, Day 48",25%
same,Tumor response ΔT/ΔC,"MCF-7 xenograft [2]; 20 mg/kg PO QD, Day 48",2.4% and 2* %
same,Tumor response in words,MCF-7 xenograft [2],tumor stasis was achieved and maintained for 48 days
same,Tumor response ΔT/ΔC,HBRX1298 xenograft; 20 mg/kg PO QD,45* %
same,Tumor response ΔT/ΔC,HBRX1298 xenograft; 80 mg/kg PO QD,32%
same,Tumor response ΔT/ΔC,MCF-7 xenograft [3]; 5 mg/kg PO BID,11* %
same,Tumor response ΔT/ΔC,MCF-7 xenograft [3]; 10 mg/kg PO BID,−1* %
same,Tumor response ΔT/ΔC,MCF-7 xenograft [3]; 10 mg/kg PO QD,16* %
same,Tumor response Regression,MCF-7 xenograft [3]; 20 mg/kg PO QD,5* %
same,Tumor response ΔT/ΔC,MCF-7 xenograft [3]; 20 mg/kg PO QD,−2* %
same,Tumor response Regression,MCF-7 xenograft [3]; 40 mg/kg PO BID,21* %
same,Tumor response ΔT/ΔC,MCF-7 xenograft [3]; 40 mg/kg PO BID,−8* %
same,Tumor response Regression,MCF-7 xenograft [3]; 80 mg/kg PO QD,31* %
same,Tumor response ΔT/ΔC,MCF-7 xenograft [3]; 80 mg/kg PO QD,−11* %
same,Efficacy of QD dosing versus split-dose BID dosing,"MCF-7 xenograft [3]; MCF-7 xenografts, FIG. 8A",equivalent efficacy
same,Inhibition of GREB1 and PGR mRNA levels in tumors,[5],stronger inhibition
same,Tumor response ΔT/ΔC,"MCF-7 xenograft [1]; LSZ102 10 mg/kg QD PO, 10 mg/kg",13%
same,"DLT alanine aminotransferase increase, number of patients",[6]; 450 mg QD with food group,one
same,"DLT aspartate aminotransferase increase, number of patients",[6]; 450 mg QD with food group,one
same,"DLT vomiting, number of patients",[6]; 600 mg QD fasted group,one
same,"DLT diarrhea, number of patients",[6]; 900 mg QD fasted group,two
same,"Constipation, G1",[6]; [9],7 (9.6) n (%)
same,"Constipation, G2",[6]; [9],1 (1.4) n (%)
same,"Constipation, G3",[6]; [9],0 n (%)
same,"Decrease appetite, G1",[6]; [9],11 (15.1) n (%)
same,"Decrease appetite, G2",[6]; [9],2 (2.7) n (%)
same,"Decrease appetite, G3",[6]; [9],0 n (%)
same,"Diarrhea, G1",[6]; [9],25 (34.2) n (%)
same,"Diarrhea, G2",[6]; [9],11 (15.1) n (%)
same,"Diarrhea, G3",[6]; [9],3 (4.1) n (%)
same,"Fatigue, G1",[6]; [9],5 (6.8) n (%)
same,"Fatigue, G2",[6]; [9],3 (4.1) n (%)
same,"Fatigue, G3",[6]; [9],0 n (%)
same,"Nausea, G1",[6]; [9],32 (43.8) n (%)
same,"Nausea, G2",[6]; [9],10 (13.7) n (%)
same,"Nausea, G3",[6]; [9],2 (2.7) n (%)
same,"Suspected related AEs, Total, G1",[6]; [9],38 (52.1) n (%)
same,"Suspected related AEs, Total, G2",[6]; [9],20 (27.4) n (%)
same,"Suspected related AEs, Total, G3",[6]; [9],7 (9.6) n (%)
same,"Vomiting, G1",[6]; [9],14 (19.2) n (%)
same,"Vomiting, G2",[6]; [9],4 (5.5) n (%)
same,"Vomiting, G3",[6]; [9],1 (1.4) n (%)
same,Discontinuation due to adverse event,[6]; [10],2 (2.7) n (%)
same,Tolerability,"[6]; oral single agent, doses up to 600 mg QD and up to 300 mg BID",well tolerated
same,"Drug-related diarrhea, any grade",[6]; single agent Arm A,53.4%
same,"Drug-related nausea, any grade",[6]; single agent Arm A,60.2%
same,"Drug-related vomiting, any grade",[6]; single agent Arm A,26.1%
same,Drug-related Grade 3 vomiting,"[6]; single agent Arm A, 1 patient",1.4%
same,Drug-related Grade 3 nausea,"[6]; single agent Arm A, 2 patients",2.7%
same,Drug-related Grade 3 diarrhea,"[6]; single agent Arm A, 3 patients",4.1%
same,"Dose limiting toxicities (DLTs), patients","[6]; single agent, all dose groups, four patients",5.9%
same,Patients requiring dose reduction due to AEs,"[6]; single agent, all gastrointestinal toxicities",seven
same,Complete response (CR),[7]; [11],0 n (%)
same,Disease control rate (DCR),[7]; [11],27 (37.5%) n (%)
same,Non-CR/Non-PD,[7]; [11],7 (9.7) n (%)
same,Overall response rate (ORR),[7]; [11],1 (1.4) n (%)
same,Partial response (PR),[7]; [11],1 (1.4) n (%)
same,Progressive disease (PD),[7]; [11],40 (55.6) n (%)
same,Response unknown,[7]; [11],6 (8.3) n (%)
same,Discontinuation due to progressive disease,[7]; [10],59 (79.7) n (%)
same,Disease control rate,[7]; single-agent LSZ102,37.5%
same,"Increase in exposure (AUC) with high fat, high calorie meal compared to fasted",clinical,~2 fold
same,Exposure versus dose,clinical; po,dose-proportional increases in LSZ102 exposure
same,Tmax,clinical; po,2 to 3 h
same,half-life,clinical; po,3.1 to 5.6 h
same,IC50,[4],5.2 nM
same,ESR1 mRNA levels,[8],not significantly reduced
same,mRNA expression of GREB1 and PGR,[8],dose response inhibition
"CC/C(=C(\c1ccccc1)c1ccc(OCCN(C)C)cc1)c1ccccc1 [Tamoxifen, reference compound]",Tumor response Regression,MCF-7 xenograft [2]; [12],1* %
same,Tumor response ΔT/ΔC,MCF-7 xenograft [2]; [12],−0.8* %
same,Tumor response in words,MCF-7 xenograft [2],tumor stasis
same,Tumor response ΔT/ΔC,HBRX1298 xenograft; 40 mg/kg PO QD,59%
same,Tumor response Regression,MCF-7 xenograft [3]; 60 mg/kg PO 5QW,11* %
same,Tumor response ΔT/ΔC,MCF-7 xenograft [3]; 60 mg/kg PO 5QW,−4* %
